Patent US20250327074A1 (SHAOXING INSTITUTE, ZHEJIANG UNIVERSITY, priority 2024, published 2025)

The molecules below were run on TCG codon, mammalian cells (assay: TCG codon recoding efficiency of all amino acids (Table 1)). Settings: TCG codon recoding of the unnatural amino acid with the aaRS and mutation of the same table line; class symbols.
Assay type: cell-based
Excerpt: Specific details are shown in Table 1 below, where “wt” represents the wild-type aminoacyl-tRNA synthetase, “mutation sites” indicate the positions and types of mutations related to specific unnatural amino acid binding on the wild-type aminoacyl-tRNA synthetase, and “unnatural amino acid” represents the unnatural amino acid corresponding to the mutated aminoacyl-tRNA synthetase. In the unnatural amino acid encoding efficiency, “+” indicates a recoding efficiency greater than 40%, “++” greater than 60%, and “+++” greater than 80%.
Accordingly, this application compiles all amino acids reported in the literature that are recognized by orthogonal aminoacyl-tRNA synthetases in mammalian systems and evaluates their recoding efficiency using the TCG codon as an example.
With `N[C@@H](CC(=O)SCCNC(=O)OC1CCCC1)C(=O)O` [compound 267] the “Recoding rate (%)” value was “++ (“++” greater than 60%)”. For `[N-]=[N+]=NCCOc1ccc(C[C@H](N)C(=O)O)cc1` [compound 348], the “Recoding rate (%)” value was “++ (“++” greater than 60%)”. With `C=CCCOc1ccc(C[C@H](N)C(=O)O)cc1` [compound 242] the “Recoding rate (%)” value was “++ (“++” greater than 60%)”. For `N[C@@H](CCSCNC(=O)Cc1ccccc1)C(=O)O` [compound 274], the “Recoding rate (%)” value was “++ (“++” greater than 60%)”. In the case of `N[C@@H](Cc1ccc(C(=O)c2cccc(Cl)c2)cc1)C(=O)O` [compound 341], the “Recoding rate (%)” value is reported as “++ (“++” greater than 60%)”. For `N[C@@H](Cc1ccc(C#CCCCc2ccccc2)cc1)C(=O)O` [compound 320], the “Recoding rate (%)” value was “++ (“++” greater than 60%)”. `CCCCSC[C@H](N)C(=O)O` [compound 380] was tested, and the “Recoding rate (%)” value was “++ (“++” greater than 60%)”. In the case of `C=CCCCOc1ccc(C[C@H](N)C(=O)O)cc1` [compound 243], the “Recoding rate (%)” value is reported as “++ (“++” greater than 60%)”. In the case of `N[C@@H](Cc1ccc(NC(=O)CF)cc1)C(=O)O` [compound 355], the “Recoding rate (%)” value is reported as “+++ (“+++” greater than 80%)”. For `CC(=O)c1ccc2cc(NC[C@H](N)C(=O)O)ccc2c1` [compound 391], the “Recoding rate (%)” value was “++ (“++” greater than 60%)”. With `CC([Se]CC(N)C(=O)O)c1cc2c(cc1[N+](=O)[O-])OCO2` (mixture of isomers) [compound 275] the “Recoding rate (%)” value was “+ (“+” indicates a recoding efficiency greater than 40%)”. With `N[C@@H](CCC(=O)OCc1ccccc1[N+](=O)[O-])C(=O)O` [compound 263] the “Recoding rate (%)” value was “+ (“+” indicates a recoding efficiency greater than 40%)”. For `CN(C)c1cccc(C[C@H](N)C(=O)O)c1` [compound 288], the “Recoding rate (%)” value was “+++ (“+++” greater than 80%)”. In the case of `CCCCC=Cc1ccc(C[C@H](N)C(=O)O)cc1` [compound 314], the “Recoding rate (%)” value is reported as “++ (“++” greater than 60%)”. With `N[C@@H](Cc1ccc(O)c(I)c1)C(=O)O` [compound 334] the “Recoding rate (%)” value was “+++ (“+++” greater than 80%)”. For `N[C@@H](Cc1ccc(C#CCCCBr)cc1)C(=O)O` [compound 316], the “Recoding rate (%)” value was “++ (“++” greater than 60%)”.

Same assay, conditions: TCG codon recoding of the unnatural amino acid with the aaRS and mutation of the same table line; numeric values
In the case of `N[C@@H](Cc1c[nH]c2cc(Br)ccc12)C(=O)O` [compound 292], the “Recoding rate (%)” value is reported as 73%. `Cc1ccc2c(C[C@H](N)C(=O)O)c[nH]c2c1` [compound 290] was tested, and the “Recoding rate (%)” value was 76%. With `N[C@@H](Cc1ccc(OCc2ccccc2)cc1)C(=O)O` [compound 240] the “Recoding rate (%)” value was 46%. With `N[C@@H](Cc1ccc(OCCBr)cc1)C(=O)O` [compound 337] the “Recoding rate (%)” value was 60%. With `N[C@@H](Cc1c[nH]c2c(Cl)cccc12)C(=O)O` [compound 301] the “Recoding rate (%)” value was 71%. With `C#CCOc1ccc(C[C@H](N)C(=O)O)cc1` [compound 363] the “Recoding rate (%)” value was 78%. In the case of `N[C@@H](Cc1ccc(B(O)O)cc1)C(=O)O` [compound 362], the “Recoding rate (%)” value is reported as 66%. For `N[C@@H](Cc1ccc(O)c(I)c1)C(=O)O` [compound 371], the “Recoding rate (%)” value was 73%. With `N[C@@H](Cc1ccc(OS(=O)(=O)F)cc1)C(=O)O` [compound 372] the “Recoding rate (%)” value was 70%. `N[C@@H](Cc1cccc(C(F)(F)F)c1)C(=O)O` [compound 234] was tested, and the “Recoding rate (%)” value was 81%. With `CCOc1cc(C[Se]CC(N)C(=O)O)c([N+](=O)[O-])cc1OCC` (centres unmarked) [compound 404] the “Recoding rate (%)” value was 59%. In the case of `CCCCCCCSC[C@H](N)C(=O)O` [compound 383], the “Recoding rate (%)” value is reported as 74%. In the case of `CC(=O)N(C)CCCC[C@H](N)C(=O)O` [compound 410], the “Recoding rate (%)” value is reported as 83%. `CCOc1cc(CSC[C@H](N)C(=O)O)c([N+](=O)[O-])cc1OCC` [compound 403] was tested, and the “Recoding rate (%)” value was 84%. For `COc1ccc(C[C@H](N)C(=O)O)cc1` [compound 365], the “Recoding rate (%)” value was 89%. In the case of `CCCCCC[C@H](N)C(=O)O` [compound 396], the “Recoding rate (%)” value is reported as 88%. With `N[C@@H](Cc1ccccc1[N+](=O)[O-])C(=O)O` [compound 232] the “Recoding rate (%)” value was 72%. `N[C@@H](Cc1ccc(Br)cc1)C(=O)O` [compound 366] was tested, and the “Recoding rate (%)” value was 63%. In the case of `N[C@@H](Cc1c[nH]c2cc(Cl)ccc12)C(=O)O` [compound 291], the “Recoding rate (%)” value is reported as 73%.
